# Experimental data as given in US8394799B2, “Compounds that inhibit HIF-1 activity, the method for preparation thereof and the pharmaceutical composition containing them as an effective component” (Korea Research Institute of Bioscience and Biotechnology, priority 2006, dated 2013).
# Tests used:
# [1] = tested on: HIF-1; experiment: HRE reporter assay, HIF activity % remaining, AGS cells; assay type: cell-based, human; settings: summary in words of the data of Table 1 and Table 2; cell line not stated
# From the text: (§1) Six tandem repeats of HRE (hypoxia Responsive Element 5′-ACGTG-3′), which is present in a human VEGF gene, was inserted into the multi-cloning region of a pGL3-basic vector (Promega) containing a luciferase gene as a reporter gene to produce a recombinant pGL3-HRE-luciferase vector which was then used to assay the compounds prepared in the above Examples for inhibition activity against HIF-mediated transcriptional activity.
# The hepatocellular carcinoma cell line HepG2 or Hep3B, both available from ATCC (American Type Culture Collection), and the gastric carcinoma cell line AGS, available from ATCC, were grown at 70% confluency in culture dishes and co-transfected with an internal control vector (pRL-CMV, Promega) and the recombinant pGL3-HRE-luciferase vector using Lipofectamine Plus Reagent (Invitrogen). HepG2 and AGS cells were treated with the compound of Chemical Formula 1A while Hep3B and AGS cells were treated with the compound of Chemical Formula 1B. The compound of Chemical Formula 1A was used in a concentration of 10 μm for HepG2 or AGS cells. The compound of Chemical Formula 1B was used in a concentration of 30 μM for Hep3B and in a concentration of 10 μM for AGS cells. […] The compounds prepared in Examples above were assayed for inhibition activity against HIF-1 by measuring the activity of the luciferase, induced in hypoxia, using a Dual-luciferase reporter assay system (Promoga). In this regard, the luciferase activity was measured for 10 sec using a Microlumat Plus luminometer (EG&G Berthold). In the meanwhile, the renilla luciferase activity from the control vector PRL-CMV (Promega) was measured to normalize the data obtained.
# On the basis of the renilla luciferase activity, the HIF activity % remaining after treatment with the compounds was corrected.
# [2] = tested on: HIF-1; experiment: Assay of IC50, Hep3B cells (HRE-luciferase transfected); assay type: cell-based; settings: Homo sapiens
# From the text: as §1
# [3] = tested on: HIF-1; experiment: Assay of IC50, AGS cells (HRE-luciferase transfected); assay type: cell-based; settings: Homo sapiens
# From the text: as §1
# [4] = tested on: EPO or VEGF; experiment: Expression of EPO or VEGF, target genes of HIF-1, in hypoxia (RT-PCR); assay type: cell-based, human; settings: RT-PCR, 0, 1, 3 and 10 μM, 12 hrs in 1% O2, FIG. 3
# From the text: The inhibitory effect of the compounds of the present invention on HIF-1 activity was confirmed by assaying the compounds prepared in Examples for inhibition activity on the expression of EPO or VEGF, a representative target gene of HIF-1 through an analysis of RT-PCR (reverse transcriptase polymerase chain reaction). VEGF, a target gene of HIF-1, encodes an angiogenesis factor playing a pivotal role in the growth and metastasis of cancer and EPO is a hematosis hormone gene, and both genes have been known for being deeply related to the development and the aggravation of cancer. The compounds of the present invention were measured for inhibition of VEGF expression in AGS, Hep3B and HepG2 cells. In this regard, the hepatocellular carcinoma cell line Hep3B was treated with compounds prepared in Examples 18 and 126 as follows.
# After being grown to 70% confluency in culture dishes, HepG2 cells (American Type Culture Collection) were treated with various concentrations (0 μm, 1 μm 3 μM and 10 μm) of compounds prepared in Examples 18, 44, 113 or 126 and incubated for 12 hrs in hypoxia (1% O2, 94%, N2, and 5% CO2, expressed as ‘1% O2’ in FIG. 2). Total RNA was isolated using an RNA Mini kit (Qiagen). From the total RNA (2 μg) thus obtained, cDNA was synthesized using an RT-PCR kit (Invitrogen), and was used to amplify EPO or VEGF by PCR in the presence of EPO or VEGF-specific primers. EPO or VEGF expression was quantitatively analyzed by running the PCR products on agarose gel. As an internal control, GAPDH was simultaneously amplified so as to analyze the selective inhibition of each compound for VEGF. Base sequences of primers used for the amplification of EPO, VEGF and GAPDH used in the present invention were as follows.
# [5] = tested on: HIF-1; experiment: Assay of IC50, SK-Hep-1 cells (same manner); assay type: cell-based; settings: Homo sapiens, SK-HEP1; SK-Hep-1 cell line, compounds 0.01 to 100 μM for 16 hrs
# From the text: as §1
# [6] = tested on: metastatic breast carcinoma cell line MDA-MB-435; experiment: In vivo anticancer activity in nude mice implanted with MDA-MB-435; settings: for inhibition of the growth of the cancer cells compared to the control: once a day, MDA-MB-435 in nude mice; for deaths in six mice of each group: mouse, in vivo
# From the text: Female nude mice 5-6 weeks old (Crj:BALB/c nu/nu, Charles River) were bred in germ-free breeding rooms maintained at constant temperature and humidity. The nude mice were anesthetized before incision of the chest skin. The metastatic breast carcinoma cell line MDA-MB-435, obtained from DR D. R. Welch, Univ. Alabama, was implanted at a count of 10^6 cells/mouse into the mammary gland fat pad, and the incisions were then closed with surgical clips. The nude mice were divided into test groups and a control group, each consisting of 6 mice. […] For the control group, Solution A alone was used at a dose of 100 μl once a day. Thereafter, tumor volumes and body weights were measured once a week. Tumor volumes were calculated according to the following Mathematic Formula 1. Tumor Volume (mm^3)=(Length of Long Axis,mm)×(Length of Short Axis,mm)^2×0.5 <Mathematic Formula 1>
# [7] = Acute toxicity, single oral administration in mice; settings: mouse, in vivo, 300 mg/kg
# Procedure: An acute cytotoxicity assay was conducted with five-week-old SPF C57BL/6 mice (Samtako BioKorea) as follows.
IC50 [5] [nM],SMILES,"inhibition activity against the transcription mediated by HIF-1, induced in hypoxia [1]",IC50 [2] [nM],IC50 [3] [nM],expression of EPO or VEGF in hypoxia [4],inhibition of the growth of the cancer cells compared to the control ([6]; 20 mg/kg) [%],inhibition of the growth of the cancer cells compared to the control ([6]; 50 mg/kg) [%],deaths in six mice of each group [6],"toxicity (death, clinical syndromes, body weight, autopsy) [7]"
,"O=C(COc1ccc(C23CC4CC(CC(C4)C2)C3)cc1)Nc1cccc(C(=O)O)c1 [Example 44, 3-[2-(4-Adamantan-1-yl-phenoxy)-acetylamino]-benzoic acid]",excellent inhibition activity,5000,2500,inhibit the expression of EPO or VEGF dose-dependently,,,,
590,"NC(=O)c1ccnc(NC(=O)COc2ccc(C34CC5CC(CC(C5)C3)C4)cc2)c1 [Example 113, 2-[2-(4-adamantan-1-yl-phenoxy)acetylamino]-isonicotinamide]",excellent inhibition activity,,,inhibit the expression of EPO or VEGF dose-dependently,,,,
,"COC(=O)c1ccc2[nH]c(COc3ccc(C45CC6CC(CC(C6)C4)C5)cc3)nc2c1 [Example 126, 2-(4-adamantan-1-yl-phenoxymethyl)-1H-benzoimidazole-5-carboxylic acid methyl ester]",excellent inhibition activity,,,inhibit the expression of EPO or VEGF dose-dependently,53,58.6,No dead were observed,no toxicity
,"COC(=O)c1ccc(O)c(NC(=O)COc2ccc(C34CC5CC(CC(C5)C3)C4)cc2)c1 [Example 18, 3-[2-(4-Adamantan-1-yl-phenoxy)acetyl-amino]-4-hydroxy benzoic acid methyl ester]",excellent inhibition activity,2600,700,inhibit the expression of EPO or VEGF dose-dependently,46.5,64.6,No dead were observed,no toxicity
